Earlier results as cited in patent US20030176421A1, “PROKINETIC AGENTS FOR TREATING GASTRIC HYPOMOTILITY AND RELATED DISORDERS” (priority 1999, published 2003).
No end group written: not given here.

Assays:
[1] = system: guinea-pig gastric muscle; settings: without altering membrane potential significantly
[2] = system: canine colonic smooth muscle; settings: in the presence of forskolin; concentration dependent
[3] = system: guinea pig ileum longitudinal muscle; settings: potentiation at lower doses, inhibition at higher concentrations for theophylline; entire concentration range for the others
[4] = system: isolated canine internal anal sphincter
[5] = system: sensitized guinea-pig colon
[6] = system: cat lower oesophageal sphincter; settings: for cAMP and cGMP levels after exposure: cat LOS; for relaxation of circular smooth muscle (LOS): cat
[7] = system: human lower oesophageal sphincter

Compound: CC(C)Cn1c(=O)n(C)c(=O)c2[nH]cnc21 [IBMX, 3-isobutyl-1-methylxanthine]
- relaxation of muscle strips (pig gastric fundus): induce concentration-dependent relaxations
- effect on slow waves [1]: markedly reduce the frequency of slow waves
- potency order for decrease in carbachol-induced contractile activity [2]: rolipram>Ro 20-1724>isobutyl methylxanthine>SB 94120>siguazodan>zaprinast

Compound: [N]=O [NO, nitric oxide]
- increase in cGMP content (pig gastric fundus): ~40 fold

Compound: CCCCOc1cc(CC2CNC(=O)N2)ccc1OC (centres unmarked) [Ro 20-1724]
- potency order for decrease in carbachol-induced contractile activity [2]: rolipram>Ro 20-1724>isobutyl methylxanthine>SB 94120>siguazodan>zaprinast

Compound: COc1cc(C(=O)OCCCN2CCCN(CCCOC(=O)c3cc(OC)c(OC)c(OC)c3)CC2)cc(OC)c1OC [dilazep]
- effect on contractile response to transmural cholinergic nerve stimulation [3]: depression of the contractile responses

Compound: OCCN(CCO)c1nc(N2CCCCC2)c2nc(N(CCO)CCO)nc(N3CCCCC3)c2n1 [dipyridamole]
- effect on contractile response to transmural cholinergic nerve stimulation [3]: depression of the contractile responses

Compound: C=C[C@@]1(C)CC(=O)[C@]2(O)[C@@]3(C)[C@@H](O)CCC(C)(C)[C@@H]3[C@H](O)[C@H](OC(C)=O)[C@@]2(C)O1 [forskolin]
- relaxation of muscle strips (pig gastric fundus): induce concentration-dependent relaxations
- relaxation by intrinsic inhibitory neurons and associated cGMP elevation [4]: blocked

Compound: COc1ccc(CN(CCN(C)C)c2ccccn2)cc1 [mepyramine]
- initial rapid response of antigen-induced contraction [5]: blocked

Compound: O=S(=O)(Nc1cccc(OCc2ccc3ccccc3n2)c1)C(F)(F)F [ritolukast]
- slower developing late contraction after antigen [5]: reduced

Compound: COc1ccc(C2CNC(=O)C2)cc1OC1CCCC1 (centres unmarked) [rolipram]
- effect on slow waves [1]: markedly reduce the frequency of slow waves
- potency order for decrease in carbachol-induced contractile activity [2]: rolipram>Ro 20-1724>isobutyl methylxanthine>SB 94120>siguazodan>zaprinast

Compound: CN/C(=N\c1ccc(C2=NNC(=O)CC2C)cc1)NC#N (centres unmarked) [siguazodan]
- potency order for decrease in carbachol-induced contractile activity [2]: rolipram>Ro 20-1724>isobutyl methylxanthine>SB 94120>siguazodan>zaprinast

Compound: Cn1c(=O)c2[nH]cnc2n(C)c1=O [theophylline]
- effect on slow waves [1]: markedly reduce the frequency of slow waves
- effect on contractile response to transmural cholinergic nerve stimulation [3]: biphasic effect on cholinergic transmission

Compound: CCCOc1ccccc1-c1nc2[nH]nnc2c(=O)[nH]1 [zaprinast]
- relaxation of muscle strips (pig gastric fundus): induce concentration-dependent relaxations
- effect on NANC relaxations induced by electrical stimulation at intervals (pig gastric fundus; circular, but not longitudinal muscle strips): increases the duration of the NANC relaxations
- potency order for decrease in carbachol-induced contractile activity [2]: rolipram>Ro 20-1724>isobutyl methylxanthine>SB 94120>siguazodan>zaprinast

Compound: helospectin
- cAMP and cGMP levels after exposure [6]: both cAMP and cGMP levels were increased

Compound: pituitary adenylate cyclase activating peptide [PACAP]
- relaxation of circular smooth muscle (LOS) [6]: induced concentration-dependent relaxations
- cAMP and cGMP levels after exposure [6]: both cAMP and cGMP levels were increased
- relaxation of circular smooth muscle (LOS) [7]: induced concentration-dependent relaxations

Compound: vasoactive intestinal peptide (HSDAVFTDNYTRLRKQMAVKKYLNSILN; ends and bridges not checked; UniProt P01282 125-152, looked up) [VIP]
- relaxation of circular smooth muscle (LOS) [6]: induced concentration-dependent relaxations
- cAMP and cGMP levels after exposure [6]: increase in cAMP levels only
- relaxation of circular smooth muscle (LOS) [7]: induced concentration-dependent relaxations
